Assay results from ChEMBL document CHEMBL5356975, “Brønsted Acid-Mediated Conversion of Naturally Abundant Lathyrane Diterpenes: Are Rare 10,11-seco-Lathyrane Diterpenes Artifacts?” (J Nat Prod, 2024).
Calls of active or inactive are those of the source. The rule behind the calls is not given here.

Assays:
BV-2 [1] = assay: Cytotoxicity against mouse BV-2 cells assessed as reduction in cell viability at 20 uM incubated for 24 hrs by MTT assay; format: toxicity, cell-based; settings: bv-2, 24 h
BV-2 [2] = assay: Antineuroinflammatory activity in LPS induced mouse BV-2 cells assessed as inhibition of NO production pretreated for 4 hrs followed by LPS addition and measured after 24 hrs by griess reagent based assay; format: functional, cell-based
BV-2 [3] = assay: Antineuroinflammatory activity in LPS induced mouse BV-2 cells assessed as inhibition of NO production at 20 uM pretreated for 4 hrs followed by LPS addition and measured after 24 hrs by griess reagent based assay relative to control; format: functional; settings: time 28 hrs
BV-2 [4] = assay: Antineuroinflammatory activity in LPS induced mouse BV-2 cells assessed as reduction in COX-2 protein expression at 10 uM pretreated for 4 hrs followed by LPS addition and measured after 24 hrs by Western blot analysis; format: functional, cell-based; settings: time 28.0 hrs
BV-2 [5] = assay: Antineuroinflammatory activity in LPS induced mouse BV-2 cells assessed as reduction in iNOS protein expression at 10 uM pretreated for 4 hrs followed by LPS addition and measured after 24 hrs by Western blot analysis; format: functional, cell-based; settings: time 28.0 hrs

Row | SMILES | Activity (BV-2 [1]) | IC50 (BV-2 [2]) [µM] | other results
1 | C=C1[C@@H](O)C[C@H](C(C)(C)OC(=O)COCC)/C=C/[C@@H](C)C(=O)[C@@]2(O)C[C@H](C)[C@H](O)[C@@H]2[C@H]1O | Non-Toxic |  | 
2 | C=C1CC[C@H](C(C)(C)OC)/C=C/[C@@H](C)C(=O)[C@@]2(O)C[C@H](C)[C@H](O)[C@@H]2[C@H]1O | Non-Toxic |  | 
3 | C=CC(=O)OC(C)(C)[C@@H]1/C=C/[C@@H](C)C(=O)[C@@]2(O)C[C@H](C)[C@H](O)[C@@H]2[C@@H](O)C(=C)[C@@H](O)C1 | Non-Toxic | 7.7 | inhibition at 20 µM (BV-2 [3]): 70%
4 | C=C1[C@@H](O)C[C@H](C(C)(C)OC(C)=O)/C=C/[C@@H](C)C(=O)[C@@]2(O)C[C@H](C)[C@H](O)[C@@H]2[C@H]1O | Non-Toxic |  | 
5 | C=C1[C@@H](O)C[C@H](C(C)(C)OC)/C=C/[C@@H](C)C(=O)[C@@]2(O)C[C@H](C)[C@H](O)[C@@H]2[C@H]1O | Non-Toxic |  | 
6 | C=C1CC[C@H](C(C)(C)OC(=O)COCC)/C=C/[C@@H](C)C(=O)[C@@]2(O)C[C@H](C)[C@H](O)[C@@H]2[C@H]1O | Non-Toxic |  | 
7 | C=C1CC[C@H](C(C)(C)OCCCO)/C=C/[C@@H](C)C(=O)[C@@]2(O)C[C@H](C)[C@H](O)[C@@H]2[C@H]1O | Non-Toxic | 13 | inhibition at 20 µM (BV-2 [3]): 63%
8 | C=C1[C@@H](O)C[C@H](C(C)(C)OCCCO)/C=C/[C@@H](C)C(=O)[C@@]2(O)C[C@H](C)[C@H](O)[C@@H]2[C@H]1O | Non-Toxic | 18 | inhibition at 20 µM (BV-2 [3]): 56%
9 | C=C1CC[C@H](C(C)(C)OC(C)=O)/C=C/[C@@H](C)C(=O)[C@@]2(O)C[C@H](C)[C@H](O)[C@@H]2[C@H]1O | Non-Toxic |  | 
10 | C=C1CC[C@H](C(C)(C)OCC)/C=C/[C@@H](C)C(=O)[C@@]2(O)C[C@H](C)[C@H](O)[C@@H]2[C@H]1O | Non-Toxic |  | 
11 | C=C1[C@@H](O)C[C@H](C(C)(C)OCC)/C=C/[C@@H](C)C(=O)[C@@]2(O)C[C@H](C)[C@H](O)[C@@H]2[C@H]1O | Non-Toxic |  | 
12 | C=C1[C@@H](O)C[C@H](C(C)(C)OC(=O)CC)/C=C/[C@@H](C)C(=O)[C@@]2(O)C[C@H](C)[C@H](O)[C@@H]2[C@H]1O | Non-Toxic |  | 
13 | O=c1c(O)c(-c2ccc(O)c(O)c2)oc2cc(O)cc(O)c12 [QUERCETIN] |  | 10 | 
14 | C=CC(=O)OC(C)(C)[C@@H]1/C=C/[C@@H](C)C(=O)[C@@]2(O)C[C@H](C)[C@H](O)[C@@H]2[C@@H](O)C(=C)CC1 | Non-Toxic | 6.2 | Activity (BV-2 [4]): Active; Activity (BV-2 [5]): Active; inhibition at 20 µM (BV-2 [3]): 73%
15 | C=C1CC[C@H](C(C)(C)OC(=O)CC)/C=C/[C@@H](C)C(=O)[C@@]2(O)C[C@H](C)[C@H](O)[C@@H]2[C@H]1O | Non-Toxic |  | 
